# Assay results published in US4016176A, “Esters of 4-hydroxy-2,9-dioxatricyclo[4.3.1.0^3,7 ] decanes and processes for their production” (Kali-Chemie Pharma GmbH, priority 1973, dated 1977).
# Read-outs that look alike come from different tables or passages of the source.
# Experiments:
# white mice [1] = assay: balance bar test (Campbell and Richter screening); assay type: in vivo; conditions: mouse; Table 4; read-out: K. balance bar test (ED50)
# Description: (§1) The sedative and hypnotic effectiveness of the compounds of the invention were also ascertained by screening tests with white mice described by Campbell and Richter in Acta Pharmacol. et Toxicol. 25 (1967) page 345. In Table 4 the results of various specific screening tests are listed. These tests were as follows:
# K. balance bar test (ED50).
# (§2) The values specified in Tables 4 and 5 hereinafter refer to milligrams per kilogram of body weight of the mouse.
# [2] = acute toxicity (LD50) in mice; assay type: in vivo, mouse; conditions: in vivo, mouse
# Description: (§3) In the Table 3 which follows are listed results of tests pertaining to the effectiveness of various compounds that are disclosed herein. The results are included in the several columns under letters whose significance is as follows:
# (§4) A - lethal dose (LD50) to mice in milligrams per kilogram of body weight of the mouse when administered per os.
# (§5) B - lethal dose (LD50) to mice in milligrams per kilogram of body weight of the mouse when administered intraperitoneally.
# (§6) A. lethal dose (LD50) to mice in milligrams per kilogram body weight of the mouse when administered per os.
# (§7) B. lethal dose (LD50) to mice in milligrams per kilogram body weight of the mouse administered intraperitoneally.
# as §2
# (§8) Tests performed in accordance with the procedure described by Campbell and Richter in Acta Pharmacol. et Toxicol., vol. […] This is indicated by the results that are reported in Table 5 in which the headings A and F have the same significance as hereinbefore while the values in the column heading L pertain to the dose in milligrams per kilogram of body weight that was required to produce a lowering of the rectal temperature, which are values indicative of the depressant effect of a compound upon the central nervous system.
# white mice [3] = assay: climbing test (Campbell and Richter screening); assay type: in vivo; conditions: mouse; Table 4; read-out: J. climbing test (ED50)
# Description: as §1, §2
# white mice [4] = assay: ptosis test (Campbell and Richter screening); assay type: in vivo, mouse; conditions: for F ptosis test: mouse, Table 5
# Description: as §1, §2, §8
# mouse [5] = assay: lowering of the rectal temperature in mice; assay type: in vivo; conditions: for minimal effective dose: mouse, Table 5, read-out: L dose required to produce a lowering of the rectal temperature; for dose required to produce a lowering of the rectal temperature, relative to the 4-hydroxy compound (in words): compared with Compound No. 2090
# Description: as §2, §8
# mice [6] = assay: acute toxicity (LD50) in mice; assay type: in vivo, mouse; conditions: mouse; for B - lethal dose (LD50) to mice, intraperitoneally: intraperitoneal; for B - lethal dose (LD50) to mice, intraperitoneally / A - lethal dose (LD50) to mice, per os: Table 3
# Description: as §3, §4, §5, §6, §7, §2, §8
# mouse [7] = assay: ataxia in mice; assay type: in vivo; conditions: for C - ataxia: dose required to produce ataxia in a mouse / minimal effective dose: Table 3; for minimal effective dose: Mus musculus, read-out: C - ataxia: dose required to produce ataxia in a mouse, mouse
# Description: as §3
# C - ataxia: Dose in milligrams per kilogram of body weight required to produce ataxia in a mouse.
# mice [8] = assay: narcosis (lateral position) in mice; assay type: in vivo, mouse; conditions: for ED50: ip, 0.05 h, read-out: D - narcosis (lateral position): dose (ED50) which produces narcosis for 3 minutes in 50% of the mice; for narcosis (in words): comparison of epimers
# Description: (§9) In the Table 3 which follows are listed results of tests pertaining to the effectiveness of various compounds that are disclosed herein.
# mouse [9] = assay: prolongation of narcosis produced by hexobarbital in mice; assay type: in vivo; conditions: for prolongation of narcosis produced by hexobarbital (in words): comparison of epimers; for E - dose which prolongs narcosis produced by hexobarbital in a mouse by a factor of 4: factor of 4, Table 3
# Description: as §9
# [10] = ip, intraperitoneal, Table 4, read-out: B. lethal dose (LD50) to mice, intraperitoneally
# [11] = po, per os, Table 4, read-out: A. lethal dose (LD50) to mice, per os
# [12] = po, per os, Table 5, read-out: A lethal dose (LD50) to mice, per os
# [13] = ip, intraperitoneal, Table 3, read-out: B - lethal dose (LD50) to mice, intraperitoneally
# [14] = po, per os, Table 3, read-out: A - lethal dose (LD50) to mice, per os
# [15] = mouse, intraperitoneal, narcosis for 3 minutes, Table 3
structure (smiles),measurement,setting,value
COC1OC2OC3(C)C(OC(=O)NC(C)(C)C)CC(C2C)C13 (centres unmarked) [compound 2328],ED50,white mice [1],56 mg/kg
same,LD50,[2]; [10],1130 mg/kg
same,LD50,[2]; [11],1470 mg/kg
same,ED50,white mice [3],175 mg/kg
"COC1OC2OC3(C)C(OC(=O)CC(C)C)CC(C2C)C13 (stereo not drawn) [Compound No. 2215, 4α-Isovaleryloxy-8-methoxy-3,10-dimethyl-2,9-dioxatricyclo[4.3.1.0^3,7]decane]",dose producing ptosis relative to the 4-hydroxy compound (in words),white mice [4]; compared with Compound No. 1561,one-fourth or one-half of the dose required of the 4-hydroxy-compound
same,F ptosis test,white mice [4],50 milligrams per kilogram of bod
same,LD50,[2]; [12],> 1470 mg/kg
same,minimal effective dose,mouse [5],200 mg/kg
"C=C1C2OC(OC)C3C1CC(OC(C)=O)C3(C)O2 (stereo not drawn) [Compound No. 2117, 4α-Acetoxy-8-methoxy-3-methyl-10-methylene-2,9-dioxatricyclo [4.3.1.0^3,7] decane]",F ptosis test,white mice [4],100 milligrams per kilogram of bod
same,LD50,[2]; [12],774 mg/kg
same,"dose required to produce a lowering of the rectal temperature, relative to the 4-hydroxy compound (in words)",mouse [5],smaller
same,minimal effective dose,mouse [5],50 mg/kg
"C=C1C2OC(OC)C3C1CC(O)C3(C)O2 (stereo not drawn) [Compound No. 2090, 4α-Hydroxy-8-methoxy-3-methyl-10-methylene-2,9-dioxatricyclo[4.3.1.0^3,7] decane]",F ptosis test,white mice [4],100 milligrams per kilogram of bod
same,"B - lethal dose (LD50) to mice, intraperitoneally",mice [6],300 milligrams per kilogram of bod
same,"A - lethal dose (LD50) to mice, per os",mice [6],774 milligrams per kilogram of bod
same,C - ataxia: dose required to produce ataxia in a mouse,mouse [7]; mouse,25 milligrams per kilogram of bod
same,ED50,mice [8]; Mus musculus,< 300 mg/kg
same,minimal effective dose,mouse [5],200 mg/kg
"C=C1C2OC(OC)C3C1CC(OC(=O)CC(C)C)C3(C)O2 (stereo not drawn) [Compound No. 2295, 4α-Isovaleryloxy-8-methoxy-3-methyl-10-methylene-2,9-dioxatricyclo[4.3.1.0^3,7]decane]",LD50,[2]; [12],> 1470 mg/kg
same,"dose required to produce a lowering of the rectal temperature, relative to the 4-hydroxy compound (in words)",mouse [5],smaller
same,minimal effective dose,mouse [5],100 mg/kg
C=C1C2OC(OC)C3C1CC(OC(=O)NCC)C3(C)O2 (centres unmarked) [Compound No. 2067],LD50,[2]; [13],390 mg/kg
same,LD50,[2]; [14],872 mg/kg
same,toxicity of the epimers (in words),mice [6]; 2067 versus 2076,substantially the same toxicity
same,minimal effective dose,mouse [7],50 mg/kg
same,doses effective in producing ataxia (in words),"mouse [7]; mouse, 2067 versus 2076",identical doses are effective in producing ataxia
same,prolongation of narcosis produced by hexobarbital (in words),mouse [9],prolongs narcosis produced by hexobarbital
same,E - dose which prolongs narcosis produced by hexobarbital in a mouse by a factor of 4,mouse [9],215 milligrams per kilogram of bod
same,narcosis (in words),mice [8]; mouse,does not produce narcosis
C=C1C2OC(OC)C3C1CC(OC(=O)NCCC)C3(C)O2 (centres unmarked) [compound 2388],ED50,white mice [1],33 mg/kg
same,LD50,[2]; [10],516 mg/kg
same,LD50,[2]; [11],619 mg/kg
same,ED50,white mice [3],75 mg/kg
CNC(=O)OC1CC2C(C)C3OC(OC)C2C1(C)O3 (centres unmarked) [compound 2500],ED50,white mice [1],621 mg/kg
same,LD50,[2]; [10],954 mg/kg
same,LD50,[2]; [11],1140 mg/kg
same,ED50,white mice [3],250 mg/kg
"C=C1C2OC(OC)C3C1CC(OC(=O)CC)C3(C)O2 (stereo not drawn) [Compound No. 2118, 4α-Propionyloxy-8-methoxy-3-methyl-10-methylene-2,9-dioxatricyclo[4.3.1.0^3,7]decane]",F ptosis test,white mice [4],100 milligrams per kilogram of bod
same,LD50,[2]; [12],1140 mg/kg
same,"dose required to produce a lowering of the rectal temperature, relative to the 4-hydroxy compound (in words)",mouse [5],smaller
same,minimal effective dose,mouse [5],100 mg/kg
"C=CCNC(=O)OC1CC2C(C)C3OC(OC)C2C1(C)O3 (stereo not drawn) [Compound No. 2274, 4α-(N-Allylcarbamyloxy)-8-methoxy-3,10-dimethyl-2,9-dioxatricyclo[4.3.1.0^3,7]decane]",ED50,white mice [1],62.5 mg/kg
same,LD50,[2]; [10],279 mg/kg
same,LD50,[2]; [11],339 mg/kg
same,ED50,white mice [3],75 mg/kg
C=CCNC(=O)OC1CC2C(=C)C3OC(OCC)C2C1(C)O3 (centres unmarked) [compound 2658],ED50,white mice [1],62 mg/kg
same,LD50,[2]; [10],331 mg/kg
same,LD50,[2]; [11],470 mg/kg
same,ED50,white mice [3],185 mg/kg
"COC1OC2OC3(C)C(O)CC(C2C)C13 (stereo not drawn) [Compound No. 1561, 4α-Hydroxy-8-methoxy-3,10-dimethyl-2,9-dioxatricyclo[4.3.1.0^3,7]decane]",F ptosis test,white mice [4],100 milligrams per kilogram of bod
same,LD50,[2]; [12],> 1500 mg/kg
same,"B - lethal dose (LD50) to mice, intraperitoneally",mice [6],1600 milligrams per kilogram of bod
same,"A - lethal dose (LD50) to mice, per os",mice [6],> 1500 milligrams per kilogram of bod
same,C - ataxia: dose required to produce ataxia in a mouse,mouse [7]; mouse,200 milligrams per kilogram of bod
same,E - dose which prolongs narcosis produced by hexobarbital in a mouse by a factor of 4,mouse [9],68 milligrams per kilogram of bod
same,ED50,mice [8]; Mus musculus,800 mg/kg
same,minimal effective dose,mouse [5],100 mg/kg
CCNC(=O)OC1CC2C(C)C3OC(OCC)C2C1(C)O3 (centres unmarked) [compound 2157],LD50,[2]; [13],527 mg/kg
same,LD50,[2]; [14],1470 mg/kg
same,ED50,mice [8]; [15],100 mg/kg
"COC1OC2OC3(C)C(O)CC(C2C)C13 (stereo not drawn) [Compound No. 1246, 4β-hydroxy-3,10-dimethyl-8-methoxy-2,9-dioxatricyclo[4.3.1.0^3,7]decane]",LD50,[2]; [13],1200 mg/kg
same,LD50,[2]; [14],> 1500 mg/kg
same,C - ataxia: dose required to produce ataxia in a mouse,mouse [7]; mouse,800 milligrams per kilogram of bod
same,E - dose which prolongs narcosis produced by hexobarbital in a mouse by a factor of 4,mouse [9],68 milligrams per kilogram of bod
"C=C1C2OC(OC)C3C1CC(O)C3(C)O2 (stereo not drawn) [Compound No. 981, 4β-hydroxy-8-methoxy-3-methyl-10-methylene-2,9-dioxatricyclo[4.3.1.0^3,7]decane]",LD50,[2]; [13],600 mg/kg
same,LD50,[2]; [14],610 mg/kg
same,C - ataxia: dose required to produce ataxia in a mouse,mouse [7]; mouse,200 milligrams per kilogram of bod
same,E - dose which prolongs narcosis produced by hexobarbital in a mouse by a factor of 4,mouse [9],100 milligrams per kilogram of bod
CCCNC(=O)OC1CC2C(C)C3OC(OC)C2C1(C)O3 (centres unmarked) [compound 2364],ED50,white mice [1],38 mg/kg
same,LD50,[2]; [10],244 mg/kg
same,LD50,[2]; [11],327 mg/kg
same,ED50,white mice [3],44 mg/kg
C=C1C2OC(OCC)C3C1CC(OC(=O)NCC)C3(C)O2 (centres unmarked) [compound 2179],LD50,[2]; [13],802 mg/kg
same,LD50,[2]; [14],944 mg/kg
same,minimal effective dose,mouse [7],< 100 mg/kg
same,ED50,mice [8]; [15],< 100 mg/kg
C=C1C2OC(OC)C3C1CC(OC(=O)NC)C3(C)O2 (centres unmarked) [compound 2504],ED50,white mice [1],200 mg/kg
same,LD50,[2]; [10],492 mg/kg
same,LD50,[2]; [11],528 mg/kg
"C=CCNC(=O)OC1CC2C(=C)C3OC(OC)C2C1(C)O3 (stereo not drawn) [Compound No. 2286, 4α-(N-Allylcarbamyloxy)-8-methoxy-3-methyl-10-methylene-2,9-dioxatricyclo[4.3.1.0^3,7]decane]",ED50,white mice [1],50 mg/kg
same,LD50,[2]; [10],444 mg/kg
same,LD50,[2]; [11],970 mg/kg
same,ED50,white mice [3],112 mg/kg
COC1OC2OC3(C)C(OC(=O)NC(C)C)CC(C2C)C13 (centres unmarked) [Compound No. 2065],"B - lethal dose (LD50) to mice, intraperitoneally",mice [6],118 milligrams per kilogram of bod
same,"A - lethal dose (LD50) to mice, per os",mice [6],156 milligrams per kilogram of bod
same,ratio between effective and lethal doses (in words),"mouse [7]; 2065 versus 2057, ataxia",remains constant
same,increase in effectiveness in producing ataxia,mouse [7]; 2065 versus epimer 2057,ten-fold increase in effectiveness
same,dose required for producing ataxia,mouse [7]; mouse,12 milligrams per kilogram of body weight
same,C - ataxia: dose required to produce ataxia in a mouse,mouse [7]; mouse,12 milligrams per kilogram of bod
same,prolongation of narcosis produced by hexobarbital (in words),mouse [9],prolongation of narcosis produced by hexobarbital
same,E - dose which prolongs narcosis produced by hexobarbital in a mouse by a factor of 4,mouse [9],31.6 milligrams per kilogram of bod
same,ED50,mice [8]; [15],46.4 mg/kg
same,narcosis (in words),mice [8]; mouse,produces a very strong narcosis
"COC1OC2OC3(C)C(OC(=O)NC4CCCCC4)CC(C2C)C13 (stereo not drawn) [Compound No. 2365, 4α-(N-Cyclohexylcarbamyloxy)-8-methoxy-3,10-dimethyl-2,9-dioxatricyclo[4.3.1.0^3,7]decane]",ED50,white mice [1],137 mg/kg
same,LD50,[2]; [10],832 mg/kg
same,LD50,[2]; [11],1470 mg/kg
same,ED50,white mice [3],150 mg/kg
CCCCNC(=O)OC1CC2C(C)C3OC(OC)C2C1(C)O3 (centres unmarked) [compound 2327],ED50,white mice [1],18 mg/kg
same,LD50,[2]; [10],432 mg/kg
same,LD50,[2]; [11],690 mg/kg
same,ED50,white mice [3],56 mg/kg
